Reference: the NIST ThermoML archive (doi:10.1016/j.tca.2006.04.016)

Experiment: xn = mol fraction of the nth substance listed
Conditions: 101 kPa, Liquid, Vibrating tube method

CN(C)CCCN [N,N-dimethyl-1,3-propanediamine] + O
mass density [kg/m3]
Conditions	283.15 K	288.15 K	293.15 K	298.15 K	303.15 K	308.15 K	313.15 K	318.15 K
x2 = 0	825.96	821.56	817.14	812.72	808.28	803.83	799.38	794.9
x2 = 0.0403	829.01	824.62	820.21	815.8	811.37	806.92	802.47	797.99
x2 = 0.0811	832.1	827.73	823.33	818.92	814.5	810.07	805.61	801.14
x2 = 0.1198	835.2	830.84	826.46	822.07	817.65	813.22	808.78	804.31
x2 = 0.16	838.61	834.27	829.9	825.51	821.11	816.69	812.24	807.78
x2 = 0.1996	842.14	837.81	833.45	829.08	824.69	820.27	815.84	811.38
x2 = 0.2498	846.96	842.65	838.31	833.95	829.57	825.17	820.74	816.29
x2 = 0.2998	852.16	847.87	843.54	839.2	834.84	830.45	826.04	821.59
x2 = 0.3499	857.74	853.47	849.16	844.84	840.49	836.11	831.71	827.27
x2 = 0.3997	863.92	859.67	855.38	851.07	846.73	842.37	837.97	833.54
x2 = 0.4501	870.78	866.55	862.28	857.98	853.66	849.3	844.91	840.49
x2 = 0.4998	878.37	874.15	869.89	865.61	861.29	856.94	852.56	848.14
x2 = 0.5501	886.96	882.76	878.51	874.24	869.93	865.59	861.21	856.79
x2 = 0.5999	896.46	892.27	888.05	883.78	879.48	875.14	870.76	–
x2 = 0.6498	907.17	902.99	898.77	894.51	890.21	885.88	881.5	–
x2 = 0.7	919.35	915.19	910.98	906.73	902.43	898.1	893.72	–
x2 = 0.7499	932.79	928.64	924.44	920.2	915.92	911.6	907.23	–
x2 = 0.8	947.49	943.36	939.18	934.96	930.71	926.42	922.09	–
x2 = 0.84	959.97	955.86	951.72	947.55	943.35	939.13	934.86	–
x2 = 0.8799	972.18	968.2	964.2	960.18	956.14	952.08	947.99	–
x2 = 0.9	977.57	973.8	970	966.18	962.33	958.45	954.54	–
x2 = 0.92	981.9	978.55	975.13	971.67	968.16	964.59	960.96	–
x2 = 0.94	984.99	982.31	979.51	976.61	973.6	970.49	967.29	–
x2 = 0.9597	987.53	985.64	983.57	981.34	978.95	976.4	973.72	–
x2 = 0.975	990.28	988.99	987.47	985.74	983.82	981.71	979.42	–
x2 = 0.99	994.84	994.04	992.95	991.63	990.07	988.31	986.35	–
